Results published in publication PMC12693701, “Glucosinolate-Derived Metabolites from Barbarea vulgaris (Brassicaceae): Evaluation of Antimicrobial, Antioxidant, and Anti-Inflammatory Potentials” (Molecules, 2025).

Experiments:
[1] = DPPH radical scavenging assay; settings: mean ± SD
Experimental: The DPPH assay was used to assess the ability of the tested compounds to scavenge reactive radical species. Stock solutions of the investigated compounds were prepared in DMSO and then diluted with methanol to a final volume of 1000 µL. An equal volume of a 50 µM DPPH solution in methanol was then added to the prepared mixture. The final concentrations of the test compounds were 25, 50, and 100 µM. After thorough mixing, the samples were incubated in the dark at room temperature for 20 to 60 min. Methanol was used as a blank, and absorbance was measured at 517 nm after incubation. All measurements were performed in triplicate.

[2] = target: T1, Type I-B soybean lipoxygenase (Glycine max, UniProt P08170); experiment: LOX inhibition assay; assay type: biochemical; settings: 100 µM; mean ± SD; read-out: Percentage of LOX Inhibition
T1 sequence (P08170 1-839): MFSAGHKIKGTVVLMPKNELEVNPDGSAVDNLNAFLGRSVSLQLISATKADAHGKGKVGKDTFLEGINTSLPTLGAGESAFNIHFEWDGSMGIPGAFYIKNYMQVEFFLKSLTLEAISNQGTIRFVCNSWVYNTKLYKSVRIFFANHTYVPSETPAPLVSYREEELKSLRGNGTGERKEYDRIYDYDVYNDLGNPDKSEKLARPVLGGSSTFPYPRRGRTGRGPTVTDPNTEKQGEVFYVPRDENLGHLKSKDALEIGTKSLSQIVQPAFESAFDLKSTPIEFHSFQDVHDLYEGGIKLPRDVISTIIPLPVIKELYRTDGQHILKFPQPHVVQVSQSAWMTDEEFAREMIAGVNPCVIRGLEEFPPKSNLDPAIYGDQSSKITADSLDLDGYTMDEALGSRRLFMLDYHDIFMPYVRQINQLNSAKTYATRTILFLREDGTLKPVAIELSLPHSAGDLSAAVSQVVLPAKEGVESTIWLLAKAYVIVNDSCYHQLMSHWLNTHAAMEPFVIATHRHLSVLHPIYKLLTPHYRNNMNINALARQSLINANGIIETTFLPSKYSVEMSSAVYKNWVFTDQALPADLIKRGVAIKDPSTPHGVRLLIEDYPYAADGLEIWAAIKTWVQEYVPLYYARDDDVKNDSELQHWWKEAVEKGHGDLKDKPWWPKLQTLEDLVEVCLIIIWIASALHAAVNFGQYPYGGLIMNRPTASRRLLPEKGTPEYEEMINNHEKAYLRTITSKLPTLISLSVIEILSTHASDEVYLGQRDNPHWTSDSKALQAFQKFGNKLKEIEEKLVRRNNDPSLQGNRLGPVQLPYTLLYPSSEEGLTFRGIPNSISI
Experimental: Type I-B soybean lipoxygenase is a commonly used enzyme for studying the anti-inflammatory properties of various compounds [19]. The lipoxygenase (LOX) inhibition assay measures the enzyme’s ability to convert sodium linoleate to 13-hydroperoxylinoleic acid. The inhibition of the enzyme by the investigated compounds was determined by measuring the absorbance at 234 nm for each prepared sample. Specifically, the test compound, Tris buffer, an enzyme solution (5 × 10^3 units/mL in saline), and sodium linoleate (3 mM in Tris buffer, pH 9), were added to a UV cuvette, and the absorbance was recorded. […] All measurements were performed in triplicate.

[3] = system: B. subtilis ATCC 6633; experiment: Inhibition of biofilm formation (crystal violet); assay type: cell-based, Bacillus subtilis
Experimental: (§1) The procedure involved preparing 96-well microtiter plates (Sarstedt, Nümbrecht, Germany) by adding 100 μL of Mueller-Hinton nutrient broth to each well. A 10 μL aliquot of bacterial suspension (adjusted to 1.0 McFarland for Gram-positive bacteria and 0.5 McFarland for Gram-negative bacteria) was added to the wells. The plates were then incubated at 37 °C for 48 h to allow biofilm formation. After incubation, the wells were washed twice with 200 μL of sterile 0.85% saline to remove non-adherent and weakly adherent cells. Biofilms formed by the adherent bacteria were fixed with 100 μL of methanol until fully evaporated. The biofilms were then stained using 0.1% (w/v) crystal violet (Fluka Chemie AG, Buchs, Switzerland) and left at room temperature for 20 min. After staining, excess dye was washed off with deionized water, followed by 96% ethanol. Controls included wells containing only nutrient broth to check for sterility and nonspecific binding. Background absorbance from the sterile medium, fixative, and dye was subtracted from the OD readings of the test samples. All experiments were performed in triplicate.
(§2) To assess the inhibition of biofilm formation, 96-well microtiter plates (Sarstedt, Nümbrecht, Germany) were prepared by dispensing 100 μL of Mueller-Hinton broth into each well. From stock solutions of tested compounds (at 10 mg/mL), 100 μL was added to the first row of the plate, followed by twofold serial dilutions (from 5 to 0.039 mg/mL) using a multichannel pipette (Eppendorf AG, Hamburg, Germany). Subsequently, 10 μL of fresh bacterial suspension (adjusted to 0.5 McFarland for Gram-negative and 1.0 McFarland for Gram-positive bacteria) was added to each well. The plates were incubated at 37 °C for 48 h. After incubation, the contents of the wells were carefully removed by tapping, and the remainder of the experiment was conducted following the procedure described above.
(§3) Controls consisted of wells containing only broth or broth with the tested compounds to assess sterility and nonspecific binding. Background absorbance was subtracted from test readings as described earlier. All experiments were performed in triplicate, and tetracycline (Sigma-Aldrich, St. Louis, MO, USA), dissolved in nutrient broth, was used as a reference compound.

[4] = system: S. aureus ATCC 25923; experiment: Inhibition of biofilm formation (crystal violet); assay type: cell-based, Staphylococcus aureus
Experimental: as §1, §2, §3

[5] = system: P. mirabilis; experiment: Inhibition of biofilm formation (crystal violet); assay type: cell-based, Proteus mirabilis
Experimental: as §1, §2, §3

[6] = system: S. enterica; experiment: Inhibition of biofilm formation (crystal violet); assay type: cell-based, Salmonella enterica; settings: biofilm coverage reduced by 90%
Experimental: as §1, §2, §3

[7] = system: K. pneumoniae; experiment: Inhibition of biofilm formation (crystal violet); assay type: cell-based, Klebsiella pneumoniae
Experimental: as §1, §2, §3

[8] = biofilm coverage reduced by 50%
[9] = biofilm coverage reduced by 90%

Structure (SMILES)	DPPH Scavenging Ability ([1]; 25 µM, 20 min)	DPPH Scavenging Ability ([1]; 25 µM, 60 min)	DPPH Scavenging Ability ([1]; 50 µM, 20 min)	DPPH Scavenging Ability ([1]; 50 µM, 60 min)	DPPH Scavenging Ability ([1]; 100 µM, 20 min)	DPPH Scavenging Ability ([1]; 100 µM, 60 min)	inhibition at 100 µM [2]	BIC50 [3, 8]	BIC90 [3, 9]	BIC50 [4, 8]	BIC90 [4, 9]	BIC50 [5, 8]	BIC90 [5, 9]	BIC90 [6]	BIC50 [7, 8]	BIC90 [7, 9]
O=c1c(O)c(-c2ccc(O)c(O)c2)oc2cc(O)cc(O)c12 [Quercetin, reference compound]	95.3 ± 0.8%	95.1 ± 0.9%	96.8 ± 1.0%	96.5 ± 0.9%	95.1 ± 0.9%	95.4 ± 0.8%	92 ± 0.9%	–	–	–	–	–	–	–	–	–
CN(C)[C@@H]1C(O)=C(C(N)=O)C(=O)[C@@]2(O)C(O)=C3C(=O)c4c(O)cccc4[C@@](C)(O)[C@H]3C[C@@H]12 [Tetracycline, reference compound]	–	–	–	–	–	–	–	˂15.6 µg/mL	15.6 µg/mL	250 µg/mL	300 µg/mL	320 µg/mL	>1000 µg/mL	180 µg/mL	6 µg/mL	125 µg/mL
